# Assay results taken from patent publication US6509369B2, “Anti-inflammatory compounds” (Ortho-McNeil Pharmaceutical, Inc., priority 1997, dated 2003).
# Assays:
# [1] = biological target: T1, human glucocorticoid receptor (hGR) (Homo sapiens, UniProt P04150); assay: human glucocorticoid receptor binding assay (displacement of 3(H) Triamcinolone acetonide)
# T1 construct: made in house; host or cells: Sf21 insect cells infected with baculovirus hGR, OR IM9 lymphoblast cell line (endogenous hGR)
# T1 sequence (P04150 1-777): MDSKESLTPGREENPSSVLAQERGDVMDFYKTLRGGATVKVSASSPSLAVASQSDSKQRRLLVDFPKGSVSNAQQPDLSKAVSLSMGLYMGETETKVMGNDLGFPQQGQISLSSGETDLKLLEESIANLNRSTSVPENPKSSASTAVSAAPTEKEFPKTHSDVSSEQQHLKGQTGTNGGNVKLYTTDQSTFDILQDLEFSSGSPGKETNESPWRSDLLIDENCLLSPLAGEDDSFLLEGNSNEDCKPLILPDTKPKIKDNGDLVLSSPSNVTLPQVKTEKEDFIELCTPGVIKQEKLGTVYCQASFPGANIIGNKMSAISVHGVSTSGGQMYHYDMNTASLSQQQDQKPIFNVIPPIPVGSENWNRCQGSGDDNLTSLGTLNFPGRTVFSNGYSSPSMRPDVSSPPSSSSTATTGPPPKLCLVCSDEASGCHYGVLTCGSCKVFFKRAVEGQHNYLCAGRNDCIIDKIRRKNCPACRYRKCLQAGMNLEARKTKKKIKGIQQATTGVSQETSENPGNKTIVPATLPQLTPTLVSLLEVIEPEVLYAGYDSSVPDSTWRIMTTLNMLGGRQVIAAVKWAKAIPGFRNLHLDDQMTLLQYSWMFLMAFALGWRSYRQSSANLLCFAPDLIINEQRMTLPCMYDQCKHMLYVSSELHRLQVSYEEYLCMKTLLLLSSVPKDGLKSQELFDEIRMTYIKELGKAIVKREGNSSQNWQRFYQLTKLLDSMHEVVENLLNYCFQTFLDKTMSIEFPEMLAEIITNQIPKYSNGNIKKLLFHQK
# [2] = test system: human progesterone receptor (hPR); assay: human progesterone receptor binding assay (displacement of 3(H) R5020 Promegestone)
# Experimental: A human progesterone receptor binding assay was performed in order to determine selectivity of the compounds, as follows. Human progesterone receptors were prepared from either insect cells (SF21) infected with baculovirus hPR A, or from a breast cancer cell line, T47D, which expresses high levels of endogenous hPR. The receptor binding reactions, with or without test compounds, were set up in 96-well microtiter plates which were previously siliconized with SIGMACOTE. The binding components, 3(H) R5020 Promegestone, a high affinity ligand for the progesterone receptors, glycerol/molybdate-containing buffer and unlabeled compounds were added to the wells using a combination of BIOMEK laboratory automation system and repeat pipettes. After overnight incubation, the samples were precipitated with polyethylene glycol and filtered through Whatman GF/F paper using a TOMTEK cell harvester. The filter mate with 96 samples were bound to a solid-phase scintillant and directly counted in the BETAPLATE counter. Only those compounds that were active in the human glucocorticoid receptor assay set forth in Example 30 were used for progesterone receptor binding to determine cross-reactivity profiles, if any. The activity of test compounds to displace 3(H) R5020 binding to hPR is expressed as percent inhibition at the two concentrations, 10^−6 and 10^−5 Molar.
# [3] = test system: oxazolone-induced ear swelling (MOCH) in albino male CD-1 mice; assay: mouse oxazolone-induced contact hypersensitization (MOCH) ear swelling; format: in vivo; details: for inhibition in vivo at 1 mg: topical to mouse ear, one hour after oxazolone challenge, ear biopsy weight at 24 hours, read-out: Oxazolone Ear Swelling (MOCH) % inhibition vs. Vehicle at 1 mg; for topical antiinflammatory activity in the oxazolone model (in words): mouse ear; for Oxazolone Ear swelling % Inhibition vs. Vehicle: topical mouse ear; for topical antiinflammatory activity in the oxazolone model (in words) / dose-related activity in the oxazolone model (in words): topical; for dose-related activity in the oxazolone model (in words): doses 0.1-3%
# Procedure, shortened: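 Male CD-1 mice aged 7–9 weeks were sensitised on the abdomen with 3% oxazolone on Day 0 and challenged on Day 5 with 2% oxazolone on the left ear. Compounds in ethanol/propylene glycol 70:30 were applied topically to that ear 1 h after challenge. At 24 h, the weight difference between 7 mm left and right ear biopsies gave the measure of inhibition.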
# [4] = test system: TPA-induced ear edema in albino male CD1 mice; assay: TPA (phorbol ester)-induced ear edema; format: in vivo; details: dose 1%, topical mouse ear, 5.5 hours after TPA
# Experimental: Several triphenylpropanamide compounds of this invention, having varying affinities for the human glucocorticoid receptor, were tested for topical antiinflammatory activity in mouse ear inflammation models. […] Compounds having receptor affinities closer to hydrocortisone were as nearly active as hydrocortisone in suppressing mouse oxazolone-induced contact hypersensitization (MOCH) and phorbol ester-induced ear edema. The in vivo studies of this example were conducted as follows.
# Albino male CD1 mice, 7-9 weeks old were used in this example. A 0.005% (w/v) TPA or 20% (w/v) arachidonic acid (AA) solution was made in acetone. A 20 μl volume of the TPA or AA was applied to the dorsal left ear of the mouse. Compounds of this invention were placed in a composition containing ethanol/propylene glycol at a ratio of 70:30 were applied to the left ear of each mouse in an amount of 20 μl immediately after application of the TPA or AA. The right ear was not treated. The mice were sacrificed by carbon dioxide inhalation 5.5 hours after administration of TPA and one hour after administration of AA, the left and right ears were removed and a 7 mm biopsy was removed from each ear and weighed. The difference in biopsy weights between the right and left ears was calculated. Antiinflammatory effects of compounds were evident as an inhibition of the increase in ear weight.
Compound,IC50 [1],hPR % inh 10 μM [2],melting point,topical antiinflammatory activity in the oxazolone model (in words) [3],% Inhibition of TPA Ear Edema vs. Vehicle [4],further results
O=C(Cc1ccccc1)NCC(c1ccccc1)C(c1ccccc1)c1ccccc1 (stereo not drawn) [Compound 1],890 nM,−0.2%,146 to 147 °C,–,–,–
O=C(Cc1ccccc1)NCC(c1ccccc1)C(c1ccc(F)cc1)c1ccc(F)cc1 (stereo not drawn) [Compound 15],21 nM,–,87.5 to 89.7 °C,moderate topical activity,–,inhibition in vivo at 1 mg [3]: 47%
COc1ccccc1CCC(=O)NCC(c1ccc(Cl)cc1)C(c1ccccc1)c1ccccc1 (stereo not drawn) [Compound 21],57 nM,21%,122.2 to 123.5 °C,–,–,–
"O=C(Cc1cccs1)NCC(c1ccccc1)C(c1ccccc1)c1ccccc1 (stereo not drawn) [Compound 29, N-(2-thiophrne)acetyl-2,3,3-triphenylpropylamine]",8 nM,28.3%,–,equiactive with hydrocortisone,64.9%,"Oxazolone Ear swelling % Inhibition vs. Vehicle ([3]; Experiment 1, dose 0.1%): 4.3%; Oxazolone Ear swelling % Inhibition vs. Vehicle ([3]; Experiment 1, dose 0.3%): 34.7%; Oxazolone Ear swelling % Inhibition vs. Vehicle ([3]; Experiment 1, dose 1%): 49.9%; Oxazolone Ear swelling % Inhibition vs. Vehicle ([3]; Experiment 1, dose 3%): 66.5%; dose-related activity in the oxazolone model (in words) [3]: inhibited ear swelling in a dose-dependent manner"
Cc1ccc(CC(=O)NCC(c2ccccc2)C(c2ccc(F)cc2)c2ccc(F)cc2)s1 (stereo not drawn) [Compound 32],7 nM,–,–,equiactive with hydrocortisone,60.0%,"Oxazolone Ear swelling % Inhibition vs. Vehicle ([3]; Experiment 2, dose 0.1%): 11.2%; Oxazolone Ear swelling % Inhibition vs. Vehicle ([3]; Experiment 2, dose 0.3%): 18.95%; Oxazolone Ear swelling % Inhibition vs. Vehicle ([3]; Experiment 2, dose 1%): 31.45%; Oxazolone Ear swelling % Inhibition vs. Vehicle ([3]; Experiment 2, dose 3%): 36.5%; dose-related activity in the oxazolone model (in words) [3]: inhibited ear swelling in a dose-dependent manner"
O=C(Cc1cccs1)NCC(c1cccs1)C(c1ccccc1)c1ccccc1 (stereo not drawn) [Compound 46],723 nM,–,138.2 to 139.9 °C,–,–,inhibition in vivo at 1 mg [3]: 4%
"C[C@]12CCC(=O)C=C1CC[C@@H]1[C@@H]2[C@@H](O)C[C@@]2(C)[C@H]1CC[C@]2(O)C(=O)CO [hydrocortisone, reference compound]",–,–,–,–,80.6%,"Oxazolone Ear swelling % Inhibition vs. Vehicle ([3]; Experiment 1, dose 1%): 78.9%; Oxazolone Ear swelling % Inhibition vs. Vehicle ([3]; Experiment 2, dose 1%): 58.2%"
